# Experimental data as given in ChEMBL document CHEMBL3045733, “3D-QSAR and molecular docking studies of hydroxamic acids as peptide deformylase inhibitors” (Med Chem Res, 2012).
# Assay: Inhibition of peptide deformylase using N-formylmethionine-alanine-serineas substrate incubated for 10 min before substrate addition by PDF-FDH coupled assay
row,pIC50,Structure (SMILES)
1,7.62,CCCC[C@@H](C(=O)N1CCC[C@H]1C(=O)N1CCCC1)[C@H](O)C(=O)NO
2,7.89,CCCC[C@@H](C(=O)N1CCC[C@H]1C(=O)N1CCCCC1)[C@H](O)C(=O)NO
3,8.3,CCCC[C@@H](C(=O)N1CCC[C@H]1C(=O)N1CCN(c2ccccc2F)CC1)[C@H](O)C(=O)NO
4,8.52,CCCC[C@@H](C(=O)N1CCC[C@H]1C(=O)N1CCN(c2ncccn2)CC1)[C@H](O)C(=O)NO
5,8.17,CCCC[C@@H](C(=O)N1CC[C@H]1C(=O)NCCC)[C@H](O)C(=O)NO
6,8.17,CCCC[C@@H](C(=O)N1CCCC[C@H]1C(=O)NCCC)[C@H](O)C(=O)NO
7,7.57,CCCC[C@@H](C(=O)N1CCC[C@H]1C(=O)NC)[C@@H](F)C(=O)NO
8,8.7,Cc1nc(NC(=O)[C@@H]2CCCN2C(=O)N(CCC2CCCC2)CC(=O)NO)sc1C
9,8.1,O=C(CN(CCC1CCCC1)C(=O)N1CCC[C@H]1C(=O)Nc1ccc2c(c1)OCO2)NO
10,7.77,O=C(CN(CCC1CCCC1)C(=O)N1CCC[C@H]1C(=O)Nc1cccc(O)c1)NO
11,7.27,O=C(CN(CCC1CCCC1)C(=O)N1CCC[C@H]1C(=O)Nc1cnccn1)NO
12,7.68,O=C(CN(CCC1CCCC1)C(=O)N1CCC[C@H]1C(=O)Nc1ncccn1)NO
13,7.17,O=C(CN(CCC1CCCC1)C(=O)N1CCC[C@H]1C(=O)Nc1nccc(-c2ccccc2)n1)NO
14,6.49,CC(C)CCN(CC(=O)NO)C(=O)N1CCC[C@H]1C(=O)Nc1nccs1
15,8.52,Cc1nc(NC(=O)[C@@H]2CCCN2C(=O)N(CCC(C)C)CC(=O)NO)sc1C
16,7.96,CC(C)CCN(CC(=O)NO)C(=O)N1CCC[C@H]1C(=O)Nc1ccc2c(c1)OCO2
17,7.92,Cc1nnc(NC(=O)[C@@H]2CCCN2C(=O)N(CCC(C)C)CC(=O)NO)s1
18,7.74,CCc1nnc(NC(=O)[C@@H]2CCCN2C(=O)N(CCC(C)C)CC(=O)NO)s1
19,7.01,CC(C)CCN(CC(=O)NO)C(=O)N1CCC[C@H]1C(=O)Nc1nnc(-c2ccccc2)s1
20,7.21,CNC(=O)[C@@H]1CCCN1C(=O)N(CCC(C)C)CC(=O)NO
21,7.92,CC(C)CCNC(=O)[C@@H]1CCCN1C(=O)N(CCC(C)C)CC(=O)NO
22,7.2,Cc1cnc(NC(=O)[C@@H]2CCCN2C(=O)N(CCC(C)C)CC(=O)NO)s1
23,8,CCCC[C@H](CC(=O)NO)C(=O)N1CCC[C@H]1C(=O)NC
24,8.52,CCCC[C@H](CC(=O)NO)C(=O)N1CCC[C@H]1C(=O)Nc1nc2ccccc2s1
25,8.04,CCCC[C@H](CC(=O)NO)C(=O)N1CCC[C@H]1C(=O)Nc1nc(-c2ccccc2)cs1

row,pIC50,Structure (SMILES)
1,8.22,CCCC[C@@H](C(=O)N1CCC[C@H]1C(=O)OC(C)(C)C)[C@@H](O)C(=O)NO
2,7.3,CCCC[C@@H](C(=O)N1CCC[C@H]1C(=O)OC(C)(C)C)[C@@H](OC)C(=O)NO
3,7.52,CCCC[C@@H](C(=O)N1CCC[C@H]1C(=O)OC(C)(C)C)[C@H](OS(=O)(=O)O)C(=O)NO
4,7.89,CCCC[C@@H](C(=O)N1CCC[C@H]1C(=O)NCCC)[C@H](F)C(=O)NO
5,7.8,CCCCNC(=O)[C@@H]1CCCN1C(=O)[C@H](CCCC)[C@H](F)C(=O)NO
6,7.89,CCCCCNC(=O)[C@@H]1CCCN1C(=O)[C@H](CCCC)[C@H](F)C(=O)NO
7,7.8,C=CCNC(=O)[C@@H]1CCCN1C(=O)[C@H](CCCC)[C@@H](F)C(=O)NO
8,8.15,CCCC[C@@H](C(=O)N1CCC[C@H]1C(=O)NCC(O)CC)[C@H](F)C(=O)NO (some centres undefined)
9,8.04,CCCC[C@@H](C(=O)N1CCC[C@H]1C(=O)NC1CCCCC1)[C@H](F)C(=O)NO
10,8.7,CCCC[C@@H](C(=O)N1CCC[C@H]1C(=O)Nc1nc(C)c(C)s1)[C@H](F)C(=O)NO
11,8.7,CCCC[C@@H](C(=O)N1CCC[C@H]1C(=O)Nc1nc(C)c(C)s1)[C@@H](F)C(=O)NO
12,9,CCCC[C@@H](C(=O)N1CCC[C@H]1C(=O)Nc1ccc(Cl)c(Cl)c1)[C@H](F)C(=O)NO
13,7.54,CCCC[C@@H](C(=O)N1CCC[C@H]1C(=O)N1CCC1)[C@H](F)C(=O)NO
14,7.66,CCCC[C@@H](C(=O)N1CCC[C@H]1C(=O)N1CCCCC1)[C@H](F)C(=O)NO
15,7.89,CCCC[C@@H](C(=O)N1CCC[C@H]1C(=O)N1CCOCC1)[C@H](F)C(=O)NO
16,8.22,CCCC[C@@H](C(=O)N1CCC[C@H]1C(=O)N1CCN(c2ccccc2F)CC1)[C@H](F)C(=O)NO
17,8.22,CCCC[C@@H](C(=O)N1CCC[C@H]1C(=O)N1CCN(c2ncccn2)CC1)[C@H](F)C(=O)NO
18,8,CCCC[C@@H](C(=O)N1CCC[C@H]1C(=O)NC)[C@H](O)C(=O)NO
19,8.1,CCCC[C@@H](C(=O)N1CCC[C@H]1C(=O)NCCC)[C@H](O)C(=O)NO
20,8.1,CCCCCNC(=O)[C@@H]1CCCN1C(=O)[C@H](CCCC)[C@H](O)C(=O)NO
21,8.15,CCCC[C@@H](C(=O)N1CCC[C@H]1C(=O)NC(C)C)[C@H](O)C(=O)NO
22,8.1,CCCC[C@@H](C(=O)N1CCC[C@H]1C(=O)NC(C)(C)CC)[C@H](O)C(=O)NO
23,8.52,CCCC[C@@H](C(=O)N1CCC[C@H]1C(=O)NC1CCCCC1)[C@H](O)C(=O)NO
24,7.77,CCCC[C@@H](C(=O)N1CCC[C@H]1C(=O)N1CCC1)[C@H](O)C(=O)NO
